ChEMBL document CHEMBL5357082, “Identification and Optimization of Small Molecule Pyrazolopyrimidine TLR7 Agonists for Applications in Immuno-oncology” (ACS Med Chem Lett, 2024)
pEC50, pIC50: −log10 of the molar value.

Columns and labels:
Toll-like receptor 7 = target: T1, Toll-like receptor 7 (Mus musculus, UniProt P58681); assay: Agonist activity at mouse TLR7
T1 sequence (P58681 whole entry): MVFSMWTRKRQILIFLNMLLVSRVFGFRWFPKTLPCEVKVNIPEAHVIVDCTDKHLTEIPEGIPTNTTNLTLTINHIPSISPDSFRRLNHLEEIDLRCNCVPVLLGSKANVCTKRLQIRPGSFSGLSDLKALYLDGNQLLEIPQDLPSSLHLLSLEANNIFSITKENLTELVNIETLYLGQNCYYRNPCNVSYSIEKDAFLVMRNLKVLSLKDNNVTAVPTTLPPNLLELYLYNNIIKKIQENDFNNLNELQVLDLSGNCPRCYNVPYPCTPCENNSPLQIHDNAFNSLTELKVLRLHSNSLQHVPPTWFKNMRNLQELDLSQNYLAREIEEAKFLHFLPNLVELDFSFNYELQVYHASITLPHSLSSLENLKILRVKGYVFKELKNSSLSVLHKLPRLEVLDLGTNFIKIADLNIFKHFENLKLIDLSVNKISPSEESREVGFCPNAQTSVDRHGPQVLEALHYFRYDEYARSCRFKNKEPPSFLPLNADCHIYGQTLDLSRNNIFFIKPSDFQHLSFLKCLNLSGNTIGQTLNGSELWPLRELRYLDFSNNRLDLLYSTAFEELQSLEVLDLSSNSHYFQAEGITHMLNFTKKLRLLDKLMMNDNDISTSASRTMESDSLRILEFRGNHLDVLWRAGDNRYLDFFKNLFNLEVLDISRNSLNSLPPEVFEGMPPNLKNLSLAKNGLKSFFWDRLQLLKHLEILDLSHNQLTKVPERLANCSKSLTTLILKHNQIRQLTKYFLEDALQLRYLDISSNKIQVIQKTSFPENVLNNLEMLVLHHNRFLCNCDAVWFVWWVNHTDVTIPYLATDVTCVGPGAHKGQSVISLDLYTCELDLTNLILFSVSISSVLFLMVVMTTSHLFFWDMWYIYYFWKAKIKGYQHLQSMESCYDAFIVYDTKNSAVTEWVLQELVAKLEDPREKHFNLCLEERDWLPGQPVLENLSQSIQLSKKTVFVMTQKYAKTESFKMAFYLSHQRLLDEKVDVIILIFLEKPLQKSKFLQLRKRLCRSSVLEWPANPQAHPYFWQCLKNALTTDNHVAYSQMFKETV

Toll-like receptor 8 = target: T2, Toll-like receptor 8 (Homo sapiens, UniProt Q9NR97); assay: Agonist activity at human TLR8
T2 sequence (Q9NR97 whole entry): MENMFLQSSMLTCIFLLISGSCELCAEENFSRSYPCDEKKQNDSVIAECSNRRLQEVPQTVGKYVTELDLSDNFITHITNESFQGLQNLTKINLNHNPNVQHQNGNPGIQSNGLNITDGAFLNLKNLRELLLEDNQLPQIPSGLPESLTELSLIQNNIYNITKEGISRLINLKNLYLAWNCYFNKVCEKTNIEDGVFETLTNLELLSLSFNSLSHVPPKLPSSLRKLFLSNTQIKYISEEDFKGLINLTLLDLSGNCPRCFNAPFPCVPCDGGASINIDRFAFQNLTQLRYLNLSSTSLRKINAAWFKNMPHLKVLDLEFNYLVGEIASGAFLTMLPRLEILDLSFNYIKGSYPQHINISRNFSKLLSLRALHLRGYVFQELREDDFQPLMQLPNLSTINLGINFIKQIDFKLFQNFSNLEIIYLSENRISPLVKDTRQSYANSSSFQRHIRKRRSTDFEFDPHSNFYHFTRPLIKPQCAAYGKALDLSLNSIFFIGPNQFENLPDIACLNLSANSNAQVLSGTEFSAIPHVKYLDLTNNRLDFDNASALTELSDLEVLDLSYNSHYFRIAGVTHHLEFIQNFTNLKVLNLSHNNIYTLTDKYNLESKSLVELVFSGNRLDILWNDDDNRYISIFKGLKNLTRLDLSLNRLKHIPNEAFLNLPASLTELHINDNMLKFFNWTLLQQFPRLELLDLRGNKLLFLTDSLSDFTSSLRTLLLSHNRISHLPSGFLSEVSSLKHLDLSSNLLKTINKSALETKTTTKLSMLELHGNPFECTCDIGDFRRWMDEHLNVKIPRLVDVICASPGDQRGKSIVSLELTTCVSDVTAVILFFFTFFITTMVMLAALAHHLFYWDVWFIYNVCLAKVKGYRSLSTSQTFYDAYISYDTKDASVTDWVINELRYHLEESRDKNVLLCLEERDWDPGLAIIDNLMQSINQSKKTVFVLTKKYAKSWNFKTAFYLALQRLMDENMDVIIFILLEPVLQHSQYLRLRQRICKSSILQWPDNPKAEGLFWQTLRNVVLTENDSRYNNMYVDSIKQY

[1] = Drug concentration in nontumor bearing Balb/C mouse at 0.5 mg/kg measured after 5 mins; type: ADME, organism-based; details: in vivo, read-out: Drug uptake
[2] = Half life in nontumor bearing Balb/C mouse at 0.5 mg/kg; type: ADME, organism-based; details: in vivo
Cytochrome P450 3A4 = Cytochrome P450 3A4 (Homo sapiens, UniProt P08684); assay: Inhibition of CYP3A4 (unknown origin) using BFC as substrate; type: ADME
Sequence of Cytochrome P450 3A4 (P08684 whole entry): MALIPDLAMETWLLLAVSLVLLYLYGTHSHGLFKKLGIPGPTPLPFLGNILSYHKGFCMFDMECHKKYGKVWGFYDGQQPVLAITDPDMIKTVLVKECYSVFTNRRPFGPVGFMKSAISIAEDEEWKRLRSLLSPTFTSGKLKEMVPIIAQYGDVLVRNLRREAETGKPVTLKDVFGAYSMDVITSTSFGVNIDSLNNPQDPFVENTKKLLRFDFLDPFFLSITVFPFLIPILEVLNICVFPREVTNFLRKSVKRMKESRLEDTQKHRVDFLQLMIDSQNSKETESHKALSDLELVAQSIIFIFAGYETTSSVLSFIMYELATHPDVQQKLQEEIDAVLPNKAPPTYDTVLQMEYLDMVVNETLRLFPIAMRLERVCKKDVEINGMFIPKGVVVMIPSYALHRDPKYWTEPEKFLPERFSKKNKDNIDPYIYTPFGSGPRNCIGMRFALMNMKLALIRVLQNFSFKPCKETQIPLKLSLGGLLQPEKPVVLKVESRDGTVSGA

Cytochrome P450 2C8 = target: T3, Cytochrome P450 2C8 (Homo sapiens, UniProt P10632); assay: Inhibition of CYP2C8 (unknown origin); type: ADME
T3 sequence (P10632 whole entry): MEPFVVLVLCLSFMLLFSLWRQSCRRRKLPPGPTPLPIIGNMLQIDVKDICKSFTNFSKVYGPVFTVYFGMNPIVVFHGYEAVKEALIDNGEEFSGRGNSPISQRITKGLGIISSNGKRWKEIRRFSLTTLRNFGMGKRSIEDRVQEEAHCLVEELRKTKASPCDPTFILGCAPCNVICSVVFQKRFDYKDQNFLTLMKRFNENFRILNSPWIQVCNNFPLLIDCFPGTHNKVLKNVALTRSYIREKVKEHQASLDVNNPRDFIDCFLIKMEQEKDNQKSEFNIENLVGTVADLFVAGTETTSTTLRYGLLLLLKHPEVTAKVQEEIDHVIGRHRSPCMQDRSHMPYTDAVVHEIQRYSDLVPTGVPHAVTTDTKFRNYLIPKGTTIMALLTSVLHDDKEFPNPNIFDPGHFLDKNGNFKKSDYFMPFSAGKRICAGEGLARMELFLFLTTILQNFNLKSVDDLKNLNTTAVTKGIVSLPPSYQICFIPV

- pEC50 (Toll-like receptor 7): 7.57
- pEC50 (Toll-like receptor 8): < 5.30
- concentration at 5 min [1]: 266 nM
- half-life [2]: 6.9 h
- pIC50 (Cytochrome P450 3A4): < 4.70
- pIC50 (Cytochrome P450 2C8): < 4.70
Structure (SMILES): CCC[C@@H](CCO)Nc1nc(N)nc2cnn(Cc3ncc(C4CCN(C5CCOCC5)CC4)cc3OC)c12
